# In ChEMBL document CHEMBL5579795, “Therapeutic potential of Coumarin-polyphenolic acid hybrids in PD: Inhibition of α-Syn aggregation and disaggregation of preformed fibrils, leading to reduced neuronal inclusion formation” (Bioorg Med Chem Lett, 2024):
# Legend:
# [1] = Cytotoxicity against rat PC-12 cells assessed as cell viability at 100 uM measured after 24 hrs by CCK-8 assay (reference value: 100%); format: toxicity, cell-based; settings: read-out: Activity
# [2] = target: Alpha-synuclein (Homo sapiens, UniProt P37840); assay: Inhibition of alpha-Synuclein (unknown origin) aggregation assessed as aggregation inhibition ratio measured after 72 hrs by Thioflavin T based fluorescence assay
Structure (SMILES),"viability at 24 h, 100 µM [1]",IC50 [2]
O=C(Nc1ccc2oc(=O)ccc2c1)c1cc(O)ccc1O,> 80%,
O=C(/C=C/c1cc(O)ccc1O)Nc1ccc2oc(=O)c(NC(=O)/C=C/c3cc(O)ccc3O)cc2c1,> 90%,
O=C(/C=C/c1cc(O)c(O)c(O)c1)Nc1ccc2oc(=O)ccc2c1,> 90%,
O=C(/C=C/c1cc(O)ccc1O)Nc1ccc2oc(=O)ccc2c1,> 90%,
Oc1cc(O)c2c(c1)O[C@H](c1cc(O)c(O)c(O)c1)[C@H](O)C2 [EPIGALLOCATECHIN],,2580 nM
